Values quoted from earlier work as cited in EP1586313A1, “Pharmaceutical composition with metoclopramide and process for its preparation” (The Jordanian Pharmaceutical Manufacturing Co. Ltd., priority 2004, dated 2005).

Conditions: reportedly

peak plasma metoclopramide concentrations associated with metoclopramide induced akathisia: greater than 120 ng/ml
Structure (SMILES): CCN(CC)CCNC(=O)c1cc(Cl)c(N)cc1OC.Cl.O [metoclopramide, 4-amino-5-chloro-N-(2-diethylaminoethyl)-2-methoxybenzamide hydrochloride monohydrate]
